Test results taken from ChEMBL document CHEMBL1201862, “PubChem BioAssay data set” (2004).
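Results reflect a 48-hour exposure of cells in 96-well plates to compound at five concentrations. The concentration for 50% growth inhibition is given as GI50.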 Calls of active or inactive are those of the source. Cut-off read from the data, not from the text of the source: active = GI50 up to about 1.1 µM and inactive = higher.

Tests used:
Assay in all cases: inhibition of tumour cell growth, NCI panel, 48 h
[1] = system: RXF 393
[2] = system: M19-MEL
[3] = system: COLO 205
[4] = system: MOLT-4
[5] = system: HCC 2998
[6] = system: K562
[7] = system: TK-10
[8] = system: HOP-62
[9] = system: OVCAR-4
[10] = system: NCI-H23
[11] = system: LXFL 529
[12] = system: DMS-114
[13] = system: SK-MEL-5
[14] = system: KM12
[15] = system: HL-60
[16] = system: SF-539
[17] = system: LOX IMVI
[18] = system: CCRF-CEM
[19] = system: DMS-273
[20] = system: SW-620
[21] = system: SF-295
[22] = system: SK-MEL-28
[23] = system: SN12C
[24] = system: SNB-75
[25] = system: OVCAR-8
[26] = system: DLD-1
[27] = system: HCT-116
[28] = system: UACC-257
[29] = system: UO-31
[30] = system: UACC-62
[31] = system: NCI-H522
[32] = system: NCI-H226
[33] = system: A549
[34] = system: SF-268
[35] = system: HOP-18
[36] = system: ACHN
[37] = system: SR
[38] = system: U-251
[39] = system: EKVX
[40] = system: HOP-92
[41] = system: SK-MEL-2
[42] = system: OVCAR-5
[43] = system: CAKI-1
[44] = system: SNB-19
[45] = system: IGROV-1
[46] = system: SNB-78
[47] = system: RPMI-8226
[48] = system: 786-0
[49] = system: XF498
[50] = system: NCI-H460
[51] = system: M14
[52] = system: KM-20L2
[53] = system: Malme-3M
[54] = system: OVCAR-3
[55] = system: HT-29
[56] = system: SK-OV-3
[57] = system: HCT-15
[58] = system: RXF 631

CCCCCCCCCCCC[N+]12CC[N+](C)(CC1)CC2
GI50 [1]: 1.31 µM (inactive)
GI50 [2]: 19.5 µM (inactive)
GI50 [3]: 5.28 µM (inactive)
GI50 [4]: 27.9 µM (inactive)
GI50 [5]: 8.09 µM (inactive)
GI50 [6]: 23.8 µM (inactive)
GI50 [7]: 1.89 µM (inactive)
GI50 [8]: 29.2 µM (inactive)
GI50 [9]: 44.8 µM (inactive)
GI50 [10]: 20.9 µM (inactive)
GI50 [11]: 25.7 µM (inactive)
GI50 [12]: 19.9 µM (inactive)
GI50 [13]: > 100 µM (inactive)
GI50 [14]: 7.31 µM (inactive)
GI50 [15]: 16.4 µM (inactive)
GI50 [16]: 39.4 µM (inactive)
GI50 [17]: 19.4 µM (inactive)
GI50 [18]: 18.8 µM (inactive)
GI50 [19]: 3.69 µM (inactive)
GI50 [20]: 44.3 µM (inactive)
GI50 [21]: 22.3 µM (inactive)
GI50 [22]: > 100 µM (inactive)
GI50 [23]: 18.3 µM (inactive)
GI50 [24]: 13 µM (inactive)
GI50 [25]: > 100 µM (inactive)
GI50 [26]: 13.8 µM (inactive)
GI50 [27]: 38.7 µM (inactive)
GI50 [28]: > 100 µM (inactive)
GI50 [29]: > 100 µM (inactive)
GI50 [30]: 22.6 µM (inactive)
GI50 [31]: 19.4 µM (inactive)
GI50 [32]: 18.3 µM (inactive)
GI50 [33]: 54.7 µM (inactive)
GI50 [34]: 18.7 µM (inactive)
GI50 [35]: 43.6 µM (inactive)
GI50 [36]: 55.1 µM (inactive)
GI50 [37]: 6.18 µM (inactive)
GI50 [38]: 15.6 µM (inactive)
GI50 [39]: > 100 µM (inactive)
GI50 [40]: 14.9 µM (inactive)
GI50 [41]: 77.8 µM (inactive)
GI50 [42]: 17.1 µM (inactive)
GI50 [43]: 11.8 µM (inactive)
GI50 [44]: 14 µM (inactive)
GI50 [45]: 1.98 µM (inactive)
GI50 [46]: 26.4 µM (inactive)
GI50 [47]: 15.8 µM (inactive)
GI50 [48]: 13 µM (inactive)
GI50 [49]: 20.7 µM (inactive)
GI50 [50]: 6.38 µM (inactive)
GI50 [51]: 29.6 µM (inactive)
GI50 [52]: 14.9 µM (inactive)
GI50 [53]: 46.9 µM (inactive)
GI50 [54]: 64.1 µM (inactive)
GI50 [55]: 16.4 µM (inactive)
GI50 [56]: > 100 µM (inactive)

O=C1C(c2ccccc2)=C(c2ccccc2)C(c2ccc(CCCCCCc3ccc(C4=C(c5ccccc5)C(=O)C(c5ccccc5)=C4c4ccccc4)cc3)cc2)=C1c1ccccc1
GI50 [1]: 26.4 µM (inactive)
GI50 [2]: > 100 µM (inactive)
GI50 [3]: > 100 µM (inactive)
GI50 [4]: > 100 µM (inactive)
GI50 [5]: > 100 µM (inactive)
GI50 [6]: > 100 µM (inactive)
GI50 [7]: > 100 µM (inactive)
GI50 [8]: > 100 µM (inactive)
GI50 [9]: > 100 µM (inactive)
GI50 [10]: > 100 µM (inactive)
GI50 [11]: > 100 µM (inactive)
GI50 [12]: > 100 µM (inactive)
GI50 [13]: > 100 µM (inactive)
GI50 [14]: > 100 µM (inactive)
GI50 [15]: > 100 µM (inactive)
GI50 [16]: > 100 µM (inactive)
GI50 [18]: > 100 µM (inactive)
GI50 [19]: > 100 µM (inactive)
GI50 [20]: > 100 µM (inactive)
GI50 [21]: > 100 µM (inactive)
GI50 [22]: > 100 µM (inactive)
GI50 [23]: > 100 µM (inactive)
GI50 [25]: > 100 µM (inactive)
GI50 [26]: > 100 µM (inactive)
GI50 [27]: > 100 µM (inactive)
GI50 [28]: > 100 µM (inactive)
GI50 [57]: > 100 µM
GI50 [29]: > 100 µM (inactive)
GI50 [30]: > 100 µM (inactive)
GI50 [31]: > 100 µM (inactive)
GI50 [33]: > 100 µM (inactive)
GI50 [34]: > 100 µM (inactive)
GI50 [36]: > 100 µM (inactive)
GI50 [38]: 64.6 µM (inactive)
GI50 [39]: > 100 µM (inactive)
GI50 [40]: > 100 µM (inactive)
GI50 [41]: > 100 µM (inactive)
GI50 [42]: > 100 µM (inactive)
GI50 [44]: 65 µM (inactive)
GI50 [45]: > 100 µM (inactive)
GI50 [58]: > 100 µM (inactive)
GI50 [46]: > 100 µM (inactive)
GI50 [47]: > 100 µM (inactive)
GI50 [48]: > 100 µM (inactive)
GI50 [50]: > 100 µM (inactive)
GI50 [51]: > 100 µM (inactive)
GI50 [52]: > 100 µM (inactive)
GI50 [53]: > 100 µM (inactive)
GI50 [54]: > 100 µM (inactive)
GI50 [55]: > 100 µM (inactive)
